One experiment deals with ATDC5 cells. Put plainly: Chondrogenesis activity assay in ATDC5 cells (collagen type II induction, immunofluorescence). It is filed as cell-based, mouse. The settings on record: Mus musculus; for EC50: collagen type II induction in ATDC5 cells, concentration reaching 50% of maximum induction; for Emax: maximum percent induction of collagen type II relative to internal reference compound at 10 μM, ATDC5 cells. In short, it runs like this: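 Collagen type II was stained in fixed, permeabilized cells with an Alexa Fluor 488 secondary and measured by high-content fluorescence imaging. ATDC5 cells had 4 days at 37 °C in insulin-supplemented differentiation medium with compound, typically 40 nM–10 μM, 0.1% DMSO. DMSO wells and a 10 μM internal reference compound were used for normalization.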

In experiment [1] the test system is primary human chondrocyte pellet cultures. Put plainly: Chondrogenesis activity assay in primary human chondrocyte pellet cultures (proteoglycan (aggrecan) induction, Blyscan assay). It is filed as cell-based. Conditions: for EC50: 336 h, proteoglycan (aggrecan) induction, primary human chondrocyte pellets, 2 weeks culture; for Emax: Homo sapiens, Chondrocyte, maximum percent proteoglycan (aggrecan) induction relative to the internal reference compound at 10 μM.

Some results are limits rather than exact numbers.

The text below walks through data of patent US12275733B2, “Substituted pyrido[3,4-b]indoles for the treatment of cartilage disorders” (Sanofi, priority 2016, dated 2025).

By EC50 is commonly meant the concentration at which the effect is half-maximal. By Emax is commonly meant the greatest response seen or fitted, relative to the assay's reference. In the experiment on ATDC5 cells, `Cc1nccc2c1[nH]c1c(-c3cccc(C(O)c4ccccn4)c3)cc(Cl)cc12` (stereo not drawn) [Example 258, [3-(6-Chloro-1-methyl-9H-pyrido[3,4-b]indol-8-yl)-phenyl]-pyridin-2-yl-methanol] displayed an EC50 of over 3.3 µM and a maximum response (Emax) of under 20%. Further, in experiment [1], a half-maximal response (EC50) required 8.2 µM and the Emax lay within 40 to 100%.
For `Cc1nccc2c1[nH]c1c(-c3ccc(C(=O)NCCN(C)C)cc3)cc(Cl)cc12` [Example 264, 4-(6-Chloro-1-methyl-9H-pyrido[3,4-b]indol-8-yl)-N-(2-dimethylamino-ethyl)-benzamide] the same measures were over 1.1 µM, 20 to 50%, 1.5 µM and 40 to 100%.
For `Cc1nccc2c1[nH]c1c(-c3cccc(C(=O)NCCN(C)C)c3)cc(Cl)cc12` [Example 265, 3-(6-Chloro-1-methyl-9H-pyrido[3,4-b]indol-8-yl)-N-(2-dimethylamino-ethyl)-benzamide], in that order: over 1.1 µM, under 20%, 3.8 µM and under 40%.
On to `Cc1nccc2c1[nH]c1c(-c3ccc(OCc4nccc5ccccc45)cc3)cc(Cl)cc12` [Example 270, 6-Chloro-8-[4-(isoquinolin-1-ylmethoxy)-phenyl]-1-methyl-9H-pyrido[3,4-b]indole], for which, in the experiment on ATDC5 cells, the EC50 was over 1.1 µM and the Emax lay in the range of 20 to 50%. In experiment [1], this molecule had a 50% effective concentration (EC50) of 4.3 µM and an Emax of 40 to 100%.
For `Cc1nccc2c1[nH]c1c(-c3cccc(OCc4nccn4C)c3)cc(Cl)cc12` [Example 271, 6-Chloro-1-methyl-8-[3-(1-methyl-1H-imidazol-2-ylmethoxy)-phenyl]-9H-pyrido[3,4-b]indole], in that order: over 3.3 µM, 20 to 50%, 4.9 µM and over 200%.
For `Clc1cc(-c2cnn(Cc3cccnc3)c2)c2c(c1)c1ccncc1n2CC1CC1` [Example 288, 6-Chloro-9-cyclopropylmethyl-8-(1-pyridin-3-ylmethyl-1H-pyrazol-4-yl)-9H-pyrido[3,4-b]indole] the same measures were 0.52 µM, over 80%, 1.2 µM and over 200%.
